In patent publication US11377425B1, “Small molecule modulators of IL-17” (LEO Pharma A/S, priority 2018, dated 2022) one finds EC50 data, which are given here for 27 compounds.

In the test the target is T1, human IL-17AA (Homo sapiens, UniProt Q16552).
T1 construct: host or cells: HEK (human embryonic kidney) cells
T1 sequence (Q16552 24-155): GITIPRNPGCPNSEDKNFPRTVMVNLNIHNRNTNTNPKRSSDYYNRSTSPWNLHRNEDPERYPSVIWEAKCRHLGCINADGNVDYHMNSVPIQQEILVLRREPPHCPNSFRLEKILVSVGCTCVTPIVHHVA
Nature of the test: IL-8 release assay in human epithelial keratinocytes adult (HEKa). As to conditions: HEKa cells, 3 ng/mL HEK-human IL-17AA + 10 ng/mL human TNFalpha; read-out: Rel EC50 IL-8 release assay. It counts as cell-based. In outline:
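IL-8 release, quantified by HTRF and normalized to controls, reports IL-17 signaling in HEKa cells treated with compound plus final 3 ng/mL IL-17AA (HEK-derived) and 10 ng/mL TNF-alpha for 68-72 h; TNF-alpha-only wells set 100% inhibition. Four-parameter logistic fits (r^2>0.9) give relative IC50 and Emax; PrestoBlue flags cytotoxicity.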

Where only a bound is given, the exact number is not on record here.

`Cc1nc[nH]c1-c1ccc(NC(=O)[C@@H](NC(=O)c2ccnn2C(C)C)C(C2CC2)C2CC2)cc1` [Example 379, N-[(1S)-1-(dicyclopropylmethyl)-2-[4-(4-methyl-1H-imidazol-5-yl)anilino]-2-oxo-ethyl]-2-isopropyl-pyrazole-3-carboxamide]: the half-maximal effective concentration (EC50) – broadly, the concentration at which the effect is half-maximal – is over 1000 nM. As for `CC(C)c1nc[nH]c1-c1ccc(NC(=O)[C@@H](NC(=O)c2ccnn2C(C)C)C(C2CC2)C2CC2)cc1` [Example 380, N-[(1S)-1-(dicyclopropylmethyl)-2-[4-(4-isopropyl-1H-imidazol-5-yl)anilino]-2-oxo-ethyl]-2-isopropyl-pyrazole-3-carboxamide], the concentration giving a half-maximal response (EC50) was in the range of 100 to 1000 nM.

For `CC(C)n1nccc1C(=O)N[C@H](C(=O)Nc1ccc(-c2[nH]cnc2C2CC2)cc1)C(C1CC1)C1CC1` [Example 381, N-[(1S)-2,2-dicyclopropyl-1-[[4-(4-cyclopropyl-1H-imidazol-5-yl)phenyl]carbamoyl]ethyl]-2-isopropyl-pyrazole-3-carboxamide], the 50% effective concentration (EC50) fell in the range of 100 to 1000 nM.

In the case of `Cc1cn[nH]c1-c1ccc(NC(=O)[C@@H](NC(=O)c2ccnn2C(C)C)C(C2CC2)C2CC2)cc1` [Example 382, N-[(1S)-1-(dicyclopropylmethyl)-2-[4-(4-methyl-1H-pyrazol-5-yl)anilino]-2-oxo-ethyl]-2-isopropyl-pyrazole-3-carboxamide], the EC50 lay in the range of 100 to 1000 nM. On to `Cc1[nH]nc(C2CC2)c1-c1ccc(NC(=O)[C@@H](NC(=O)c2ccnn2C(C)C)C(C2CC2)C2CC2)cc1` [Example 383, N-[(1S)-2,2-dicyclopropyl-1-[[4-(3-cyclopropyl-5-methyl-1H-pyrazol-4-yl)phenyl]carbamoyl]ethyl]-2-isopropyl-pyrazole-3-carboxamide], for which the EC50 is under 100 nM. Then `Cc1[nH]nc(C(C)C)c1-c1ccc(NC(=O)[C@@H](NC(=O)c2ccnn2C(C)C)C(C2CC2)C2CC2)cc1` [Example 386, N-[(1S)-1-(dicyclopropylmethyl)-2-[4-(3-isopropyl-5-methyl-1H-pyrazol-4-yl)anilino]-2-oxo-ethyl]-2-isopropyl-pyrazole-3-carboxamide], with under 100 nM; and `CC(C)c1n[nH]c(C(C)C)c1-c1ccc(NC(=O)[C@@H](NC(=O)c2ccnn2C(C)C)C(C2CC2)C2CC2)cc1` [Example 387, N-[(1S)-1-(dicyclopropylmethyl)-2-[4-(3,5-diisopropyl-1H-pyrazol-4-yl)anilino]-2-oxo-ethyl]-2-isopropyl-pyrazole-3-carboxamide], with under 100 nM; and `Cc1n[nH]c(C)c1-c1ccc(NC(=O)[C@@H](NC(=O)c2ccnn2CC(C)O)C(C2CC2)C2CC2)cc1` (stereo partly drawn) [Example 388, N-[(1S)-1-(dicyclopropylmethyl)-2-[4-(3,5-dimethyl-1H-pyrazol-4-yl)anilino]-2-oxo-ethyl]-2-(2-hydroxypropyl)pyrazole-3-carboxamide], with 100 to 1000 nM. In the case of `Cc1[nH]nc(C2CC2)c1-c1ccc(NC(=O)[C@@H](NC(=O)c2ccnn2[C@@H](C)CO)C(C2CC2)C2CC2)cc1` [Example 389, N-[(1S)-2,2-dicyclopropyl-1-[[4-(3-cyclopropyl-5-methyl-1H-pyrazol-4-yl)phenyl]carbamoyl]ethyl]-2-[(1S)-2-hydroxy-1-methyl-ethyl]pyrazole-3-carboxamide] it was under 100 nM; in that of `Cc1[nH]nc(C2CC2)c1-c1ccc(NC(=O)[C@@H](NC(=O)c2ccnn2[C@H](C)CO)C(C2CC2)C2CC2)cc1` [Example 390, N-[(1S)-2,2-dicyclopropyl-1-[[4-(3-cyclopropyl-5-methyl-1H-pyrazol-4-yl)phenyl]carbamoyl]ethyl]-2-[(1R)-2-hydroxy-1-methyl-ethyl]pyrazole-3-carboxamide], under 100 nM; in that of `CCCn1nccc1C(=O)N[C@H](C(=O)Nc1ccc(-c2c(C3CC3)n[nH]c2C)cc1)C(C1CC1)C1CC1` [Example 391, N-[(1S)-2,2-dicyclopropyl-1-[[4-(3-cyclopropyl-5-methyl-1H-pyrazol-4-yl)phenyl]carbamoyl]ethyl]-2-propyl-pyrazole-3-carboxamide], under 100 nM. Then `CCn1nccc1C(=O)N[C@H](C(=O)Nc1ccc(-c2c(C3CC3)n[nH]c2C)cc1)C(C1CC1)C1CC1` [Example 392, N-[(1S)-2,2-dicyclopropyl-1-[[4-(3-cyclopropyl-5-methyl-1H-pyrazol-4-yl)phenyl]carbamoyl]ethyl]-2-ethyl-pyrazole-3-carboxamide], with under 100 nM. With `CCc1n[nH]c(CC)c1-c1ccc(NC(=O)[C@@H](NC(=O)c2ccnn2CCCO)C(C2CC2)C2CC2)cc1` [Example 393, N-[(1S)-1-(dicyclopropylmethyl)-2-[4-(3,5-diethyl-1H-pyrazol-4-yl)anilino]-2-oxo-ethyl]-2-(3-hydroxypropyl)pyrazole-3-carboxamide], the concentration giving a half-maximal response (EC50) was under 100 nM. Then `CCc1n[nH]c(CC)c1-c1ccc(NC(=O)[C@@H](NC(=O)c2ccnn2[C@@H](C)CO)C(C2CC2)C2CC2)cc1` [Example 394, N-[(1S)-1-(dicyclopropylmethyl)-2-[4-(3,5-diethyl-1H-pyrazol-4-yl)anilino]-2-oxo-ethyl]-2-[(1S)-2-hydroxy-1-methyl-ethyl]pyrazole-3-carboxamide], with under 100 nM; and `CCc1n[nH]c(CC)c1-c1ccc(NC(=O)[C@@H](NC(=O)c2ccnn2[C@H](C)CO)C(C2CC2)C2CC2)cc1` [Example 395, N-[(1S)-1-(dicyclopropylmethyl)-2-[4-(3,5-diethyl-1H-pyrazol-4-yl)anilino]-2-oxo-ethyl]-2-[(1R)-2-hydroxy-1-methyl-ethyl]pyrazole-3-carboxamide], with under 100 nM. As for `CCc1n[nH]c(CC)c1-c1ccc(NC(=O)[C@@H](NC(=O)c2ccnn2CC)C(C2CC2)C2CC2)cc1` [Example 396, N-[(1S)-1-(dicyclopropylmethyl)-2-[4-(3,5-diethyl-1H-pyrazol-4-yl)anilino]-2-oxo-ethyl]-2-ethyl-pyrazole-3-carboxamide], the concentration giving a half-maximal response (EC50) is under 100 nM. Regarding `CCCn1nccc1C(=O)N[C@H](C(=O)Nc1ccc(-c2c(CC)n[nH]c2CC)cc1)C(C1CC1)C1CC1` [Example 397, N-[(1S)-1-(dicyclopropylmethyl)-2-[4-(3,5-diethyl-1H-pyrazol-4-yl)anilino]-2-oxo-ethyl]-2-propyl-pyrazole-3-carboxamide], the EC50 is under 100 nM.

On to `CCc1n[nH]c(CC)c1-c1ccc(NC(=O)[C@@H](NC(=O)c2ccnn2C)C(C2CC2)C2CC2)cc1` [Example 398, N-[(1S)-1-(dicyclopropylmethyl)-2-[4-(3,5-diethyl-1H-pyrazol-4-yl)anilino]-2-oxo-ethyl]-2-methyl-pyrazole-3-carboxamide], for which the concentration giving a half-maximal response (EC50) is under 100 nM. Then `CCc1n[nH]c(CC)c1-c1ccc(NC(=O)[C@@H](NC(=O)c2ccnn2C(C)C)C(C2CC2)C2CC2)cc1` [Example 399, N-[(1S)-1-(dicyclopropylmethyl)-2-[4-(3,5-diethyl-1H-pyrazol-4-yl)anilino]-2-oxo-ethyl]-2-isopropyl-pyrazole-3-carboxamide], with under 100 nM. Then `Cc1[nH]ncc1-c1ccc(NC(=O)[C@@H](NC(=O)c2ccnn2C)C(c2ccccc2)c2ccccc2)cc1` [Example 400, N-[(1S)-1-Benzhydryl-2-[4-(3-methyl-1H-pyrazol-4-yl)anilino]-2-oxo-ethyl]-2-methyl-pyrazole-3-carboxamide], with 100 to 1000 nM; and `CC(C)c1ncn(C)c1-c1ccc(NC(=O)[C@@H](NC(=O)c2ccnn2C(C)C)C(C2CC2)C2CC2)cc1` [Example 401, N-[(1S)-1-(dicyclopropylmethyl)-2-[4-(5-isopropyl-3-methyl-imidazol-4-yl)anilino]-2-oxo-ethyl]-2-isopropyl-pyrazole-3-carboxamide], with 100 to 1000 nM; and `CC(C)n1nccc1C(=O)N[C@H](C(=O)Nc1ccc(-c2c(C3CC3)ncn2C)cc1)C(C1CC1)C1CC1` [Example 402, N-[(1S)-2,2-dicyclopropyl-1-[[4-(5-cyclopropyl-3-methyl-imidazol-4-yl)phenyl]carbamoyl]ethyl]-2-isopropyl-pyrazole-3-carboxamide], with 100 to 1000 nM. In the case of `Cc1ncn(C)c1-c1ccc(NC(=O)[C@@H](NC(=O)c2ccnn2C(C)C)C(C2CC2)C2CC2)cc1` [Example 403, N-[(1S)-1-(dicyclopropylmethyl)-2-[4-(3,5-dimethylimidazol-4-yl)anilino]-2-oxo-ethyl]-2-isopropyl-pyrazole-3-carboxamide] it was 100 to 1000 nM; in that of `Cc1ncccc1-c1ccc(NC(=O)[C@@H](NC(=O)c2ccnn2C(C)C)C(C2CC2)C2CC2)cc1` [Example 404, N-[(1S)-1-(dicyclopropylmethyl)-2-[4-(2-methyl-3-pyridyl)anilino]-2-oxo-ethyl]-2-isopropyl-pyrazole-3-carboxamide], 100 to 1000 nM; in that of `Cc1cnccc1-c1ccc(NC(=O)[C@@H](NC(=O)c2ccnn2C(C)C)C(C2CC2)C2CC2)cc1` [Example 405, N-[(1S)-1-(dicyclopropylmethyl)-2-[4-(3-methyl-4-pyridyl)anilino]-2-oxo-ethyl]-2-isopropyl-pyrazole-3-carboxamide], under 100 nM. In the case of `CC(C)n1nccc1C(=O)N[C@H](C(=O)Nc1ccc(-c2c(CO)ncn2C)cc1)C(C1CC1)C1CC1` [Example 406, N-[(1S)-1-(dicyclopropylmethyl)-2-[4-[5-(hydroxymethyl)-3-methyl-imidazol-4-yl]anilino]-2-oxo-ethyl]-2-isopropyl-pyrazole-3-carboxamide], the EC50 was in the range of 100 to 1000 nM. `CC(C)n1nccc1C(=O)N[C@H](C(=O)Nc1ccc(-c2cccnc2CO)cc1)C(C1CC1)C1CC1` [Example 407, N-[(1S)-1-(dicyclopropylmethyl)-2-[4-[2-(hydroxymethyl)-3-pyridyl]anilino]-2-oxo-ethyl]-2-isopropyl-pyrazole-3-carboxamide]: the EC50 lay within 100 to 1000 nM.
